In US8969363B2, “Heterocyclic compounds and uses thereof” (Infinity Pharmaceuticals, Inc., priority 2011, dated 2015) one finds EC50 and IC50 data, which are given here for 50 compounds.

SMILES strings stand for the structures. Read-outs that look alike come from different tables or passages of the source.

One assay relates to Balb/c splenic B cells. The experiment in a line: B cell activation and proliferation assay (Alamar Blue). It counts as cell-based. The following applies: Mus musculus, 'Less than 100 nM'. Here is the method: The ability of one or more subject compounds to inhibit B cell activation and proliferation is determined according to standard procedures known in the art. For example, an in vitro cellular proliferation assay is established that measures the metabolic activity of live cells. The assay is performed in a 96 well microtiter plate using Alamar Blue reduction. Balb/c splenic B cells are purified over a Ficoll-Paque™ PLUS gradient followed by magnetic cell separation using a MACS B cell Isolation Kit (Miletenyi). Cells are plated in 90 μl at 50,000 cells/well in B Cell Media (RPMI+10% FBS+Penn/Strep+50 μM bME+5 mM HEPES). A compound provided herein is diluted in B Cell Media and added in a 10 μl volume. Plates are incubated for 30 min at 37° C. and 5% CO2 (0.2% DMSO final concentration). A 50 μl B cell stimulation cocktail is then added containing either 10 μg/ml LPS or 5 μg/ml F(ab′)2 Donkey anti-mouse […] plus 2 ng/ml recombinant mouse IL4 in B Cell Media. Plates are incubated for 72 hours at 37° C. and 5% CO2. A volume of 15 μL of Alamar Blue reagent is added to each well and plates are incubated for 5 hours at 37° C. and 5% CO2. Alamar Blue fluoresce is read at 560Ex/590Em, and IC50 or EC50 values are calculated using GraphPad Prism 5.
In general terms: The colour change of resazurin is a common sign of viable cells or microbes.

The target in the next assay is PI3Kβ. The assay is described as follows: PI3 Kinase HTRF assay, PI3Kβ. It counts as biochemical, human. The following applies: 10 μM PIP2, 10 μM ATP, read-out: PI3K β IC50. From the text: A PI3-Kinase HTRF® assay kit (cat No. 33-016) purchased from Millipore Corporation was used to screen compounds provided herein. This assay used specific, high affinity binding of the GRP1 pleckstrin homology (PH) domain to PIP3, the product of a Class 1A or 1B PI3 Kinase acting on its physiological substrate PIP2. During the detection phase of the assay, a complex was generated between the GST-tagged PH domain and biotinylated short chain PIP3. The biotinylated PIP3 and the GST-tagged PH domain recruited fluorophores (Streptavidin-Allophycocyanin and Europium-labeled anti-GST respectively) to form the fluorescence resonance energy transfer (FRET) architecture, generating a stable time-resolved FRET signal. The FRET complex was disrupted in a competitive manner by non-biotinylated PIP3, a product formed in the PI3 Kinase assay.
PI3 Kinase α, β, γ and δ activity was assayed using the PI3 Kinase HTRF® assay kit (catalogue No. 33-016) purchased from Millipore Corporation. […] Purified recombinant PI3K enzyme was used to catalyze the phosphorylation of phosphatidylinositol 4,5-bisphosphate (PIP2 at 10 μM) to phosphatidylinositol 3,4,5-trisphosphate (PIP3) in the presence of 10 μM ATP. The assay was carried out in 384-well format and detected using a Perkin Elmer EnVision Xcite Multilabel Reader. Emission ratios were converted into percent inhibitions and imported into GraphPad Prism software. […] IC50 values were determined using a nonlinear regression model available in GraphPad Prism 5. […]
In general terms: TR-FRET usually uses a lanthanide donor and a delayed reading to cut background.

Where [1] appears, read: 'Greater than 10 μM' and 'Greater than 1 μM to 10 μM'.

Chain of PI3Kβ (Q8BTI9 whole entry, the tested form may be a part): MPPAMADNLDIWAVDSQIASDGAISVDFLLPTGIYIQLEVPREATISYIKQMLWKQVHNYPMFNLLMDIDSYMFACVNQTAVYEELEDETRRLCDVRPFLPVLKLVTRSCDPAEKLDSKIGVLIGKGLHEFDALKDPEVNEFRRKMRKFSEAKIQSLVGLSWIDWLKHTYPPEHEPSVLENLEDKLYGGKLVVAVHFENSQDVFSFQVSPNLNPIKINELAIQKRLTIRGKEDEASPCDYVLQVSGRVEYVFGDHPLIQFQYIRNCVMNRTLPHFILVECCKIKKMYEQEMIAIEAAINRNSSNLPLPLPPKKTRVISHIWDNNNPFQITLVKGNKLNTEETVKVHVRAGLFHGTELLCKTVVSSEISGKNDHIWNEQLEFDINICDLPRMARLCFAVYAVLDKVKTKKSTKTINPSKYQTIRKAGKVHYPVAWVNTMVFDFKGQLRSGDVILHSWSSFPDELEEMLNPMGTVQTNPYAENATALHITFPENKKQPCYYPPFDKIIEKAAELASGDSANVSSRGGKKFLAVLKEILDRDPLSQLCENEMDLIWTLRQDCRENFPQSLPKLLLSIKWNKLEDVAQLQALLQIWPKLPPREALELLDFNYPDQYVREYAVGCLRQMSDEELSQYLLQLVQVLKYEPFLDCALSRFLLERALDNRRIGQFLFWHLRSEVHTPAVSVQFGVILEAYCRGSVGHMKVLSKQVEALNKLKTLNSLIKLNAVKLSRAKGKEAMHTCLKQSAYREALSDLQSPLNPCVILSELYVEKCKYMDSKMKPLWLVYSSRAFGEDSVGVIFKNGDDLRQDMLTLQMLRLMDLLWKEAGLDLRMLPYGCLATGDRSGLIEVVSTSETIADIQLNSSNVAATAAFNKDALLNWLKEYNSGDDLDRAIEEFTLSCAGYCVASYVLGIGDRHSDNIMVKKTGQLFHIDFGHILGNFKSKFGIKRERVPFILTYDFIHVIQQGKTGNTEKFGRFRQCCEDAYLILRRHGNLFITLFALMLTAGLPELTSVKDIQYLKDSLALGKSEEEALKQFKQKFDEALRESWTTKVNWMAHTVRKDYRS

What is called EC50 is the concentration at which the effect is half-maximal. Read a low EC50 as a more potent agent. Consider `C[C@H](Nc1ncnc2cccnc12)c1cc2ccc(F)c(Cl)c2c(=O)n1-c1ccccc1` [Compound I-16], for which the EC50 in the assay on Balb/c splenic B cells was below 0.1 µM.
The same measure, in the same setting: the same measure for `C[C@H](Nc1ncnc2cccnc12)c1cc2cccc(Cl)c2c(=O)n1-c1cccc(F)c1` [Compound I-20]: below 0.1 µM.
Broadly, the IC50 is the concentration at which inhibition is half-maximal. Consider `C[C@H](Nc1ncnc2cccnc12)c1cc2cccc(Cl)c2c(=O)n1C1CC1` [Compound I-23], for which the IC50 on PI3Kβ ('Less than 100 nM') was below 0.1 µM. In addition, in the assay on Balb/c splenic B cells, the EC50 is below 0.1 µM.
Turning to `C[C@H](Nc1ncnc2cccnc12)c1cc2cccc(Cl)c2c(=O)n1CCN1CCCC1` [Compound I-33], the EC50 with Balb/c splenic B cells is below 0.1 µM.
For the compound `C[C@H](Nc1nc(Cl)nc2cccnc12)c1cc2cccc(-c3cnn(C)c3)c2c(=O)n1-c1ccccc1` [Compound I-35], the half-inhibitory concentration (IC50) on PI3Kβ (setting [1]) is above 10 µM.
The same measure, in the same setting: the same measure for `C[C@H](Nc1nc(Cl)nc2cccnc12)c1cc2cccc(-c3cnn(C)c3)c2c(=O)n1-c1cccc(F)c1` [Compound I-37]: above 10 µM; for `C[C@H](Nc1nc(Cl)nc2cccnc12)c1cc2cccc(-c3cnn(C)c3)c2c(=O)n1C1CC1` [Compound I-39]: above 10 µM.
Regarding `C[C@H](Nc1nc(N)nc2cccnc12)c1cc2cccc(-c3cnn(C)c3)c2c(=O)n1C1CC1` [Compound I-40], at PI3Kβ (setting [1]), the IC50 fell in the range of 1 to 10 µM. The compound further displayed an EC50 in the assay with Balb/c splenic B cells below 0.1 µM.
The corresponding values for `Cc1ncc(-c2cccc3cc([C@H](C)Nc4ncnc5cccnc45)n(-c4ccccc4)c(=O)c23)cn1` [Compound I-41] are above 10 µM and below 0.1 µM.
On the same counts, the results for `COc1ncc(-c2cccc3cc([C@H](C)Nc4ncnc5cccnc45)n(-c4ccccc4)c(=O)c23)cn1` [Compound I-42] are above 10 µM and below 0.1 µM.
Regarding `COc1cncc(-c2cccc3cc([C@H](C)Nc4ncnc5cccnc45)n(-c4ccccc4)c(=O)c23)c1` [Compound I-45], the IC50 at PI3Kβ (setting [1]) was above 10 µM.
For the compound `COc1ncc(-c2cccc3cc([C@H](C)Nc4nc(N)nc5cccnc45)n(-c4ccccc4)c(=O)c23)cn1` [Compound I-57], the IC50 at PI3Kβ (setting [1]) is above 10 µM. This compound came in with an EC50 in the assay on Balb/c splenic B cells below 0.1 µM.
In the case of `COc1cncc(-c2cccc3cc([C@H](C)Nc4nc(N)nc5cccnc45)n(-c4ccccc4)c(=O)c23)c1` [Compound I-58], the IC50 on PI3Kβ (setting [1]) lay in the range of 1 to 10 µM. Moreover, the EC50 in the assay on Balb/c splenic B cells is below 0.1 µM.
The corresponding values for `Cc1ncc(-c2cccc3cc([C@H](C)Nc4nc(N)nc5cccnc45)n(-c4ccccc4)c(=O)c23)cn1` [Compound I-59] are above 10 µM and below 0.1 µM.
As for `C[C@H](Nc1ncnc2cccnc12)c1cc2cccc(C(=O)O)c2c(=O)n1-c1ccccc1` [Compound I-62], at PI3Kβ (setting [1]), the IC50 was above 10 µM.
Regarding `C[C@H](Nc1ncnc2cccnc12)c1cc2cccc(-c3cnc(N)nc3)c2c(=O)n1-c1ccccc1` [Compound I-63], the IC50 at PI3Kβ (setting [1]) was in the range of 1 to 10 µM. In the assay with Balb/c splenic B cells, this compound yielded an EC50 below 0.1 µM.
Regarding `Cc1ccnc2cc(C(C)Nc3ncnc4cccnc34)n(-c3ccccc3)c(=O)c12` (stereo not shown) [Compound I-65], the IC50 at PI3Kβ (setting [1]) lay within 1 to 10 µM.
For `COc1nc(N[C@@H](C)c2cc3cccc(Cl)c3c(=O)n2-c2ccccc2)c2ncccc2n1` [Compound I-71], the IC50 on PI3Kβ (setting [1]) is above 10 µM.
The same measure, in the same setting: the same measure for `COc1ncc(-c2cccc3cc([C@H](C)Nc4nc(OC)nc5cccnc45)n(-c4ccccc4)c(=O)c23)cn1` [Compound I-72]: above 10 µM.
Regarding `Cc1cncc(-c2cccc3cc([C@H](C)Nc4nc(N)nc5cccnc45)n(-c4ccccc4)c(=O)c23)c1` [Compound I-75], the IC50 at PI3Kβ (setting [1]) was in the range of 1 to 10 µM. The compound also came in with an EC50 in the assay on Balb/c splenic B cells below 0.1 µM.
The corresponding values for `Cc1cc(-c2cccc3cc([C@H](C)Nc4ncnc5cccnc45)n(-c4ccccc4)c(=O)c23)ccn1` [Compound I-76] are 1 to 10 µM and below 0.1 µM.
With `COc1ncc(-c2cccc3cc([C@H](C)Nc4nc(O)nc5cccnc45)n(-c4ccccc4)c(=O)c23)cn1` [Compound I-77], the IC50 at PI3Kβ (setting [1]) was above 10 µM.
`COc1ncc(-c2cccc3cc([C@H](C)Nc4nc(N)nc5cccnc45)n(-c4cccc(F)c4)c(=O)c23)cn1` [Compound I-78]: the IC50 at PI3Kβ (setting [1]) was above 10 µM. This compound also registered an EC50 in the assay with Balb/c splenic B cells below 0.1 µM.
On the same counts, the results for `Cc1cc(-c2cccc3cc([C@H](C)Nc4nc(N)nc5cccnc45)n(-c4ccccc4)c(=O)c23)ccn1` [Compound I-81] are 1 to 10 µM and below 0.1 µM.
The corresponding values for `C[C@H](Nc1nc(N)nc2cccnc12)c1cc2cccc(-c3cnc4ccccc4c3)c2c(=O)n1-c1ccccc1` [Compound I-82] are 1 to 10 µM and below 0.1 µM.
`C[C@H](Nc1nc(N)nc2cccnc12)c1cc2cccc(-c3cnc4[nH]ccc4c3)c2c(=O)n1-c1ccccc1` [Compound I-83] gave an EC50 in the assay on Balb/c splenic B cells below 0.1 µM.
With `Cc1cccc2cc([C@H](C)Nc3nc(N)nc4cccnc34)n(-c3cccc(F)c3)c(=O)c12` [Compound I-85], the IC50 at PI3Kβ (setting [1]) is 1 to 10 µM. The compound further had an EC50 in the assay on Balb/c splenic B cells below 0.1 µM.
Regarding `C[C@H](Nc1nc(N)nc2cccnc12)c1cc2cccc(Cl)c2c(=O)n1-c1ccccc1` [Compound I-92], on PI3Kβ ('Less than 100 nM'), the IC50 was below 0.1 µM.
In the case of `COc1ccc(CNc2nc(N[C@@H](C)c3cc4cccc(-c5cnc(OC)nc5)c4c(=O)n3-c3ccccc3)c3ncccc3n2)cc1` [Compound I-93], the IC50 at PI3Kβ (setting [1]) is 1 to 10 µM.
Same read-out and setting: the same measure for `Cc1ncc(-c2cccc3cc([C@H](C)Nc4nc(N)nc5cccnc45)n(-c4ccccc4)c(=O)c23)s1` [Compound I-94]: 1 to 10 µM.
Still for that read-out and setting: the same measure for `C[C@H](Nc1cc(Cl)nn2ccnc12)c1cc2cccc(-c3cnn(C)c3)c2c(=O)n1-c1cccc(F)c1` [II-16]: above 10 µM; for `C[C@H](Nc1ccnc2ccnn12)c1cc2scc(-c3cnn(C)c3)c2c(=O)n1-c1ccccc1` [II-21]: above 10 µM; for `C[C@H](Nc1ccnn2ccnc12)c1cc2scc(-c3cnn(C)c3)c2c(=O)n1-c1ccccc1` [II-23]: above 10 µM.
For the compound `COc1ncc(-c2cccc3cc([C@H](C)Nc4ccnc5ccnn45)n(-c4ccccc4)c(=O)c23)cn1` [II-47], on PI3Kβ (setting [1]), the IC50 is above 10 µM.
As to `C[C@H](Nc1ncnc2ccnn12)c1cc2cccc(C(F)(F)F)c2c(=O)n1-c1ccccc1` [III-21], on PI3Kβ (setting [1]), the IC50 lay within 1 to 10 µM.
Same read-out and setting: the same measure for `C[C@H](Nc1nc(Cl)nc2scnc12)c1cc2cccc(C(F)(F)F)c2c(=O)n1-c1ccccc1` [III-24]: 1 to 10 µM.
As to `C[C@H](Nc1nc(N)ncc1C(F)(F)F)c1cc2cccc(C(F)(F)F)c2c(=O)n1-c1ccccc1` [III-32], the IC50 on PI3Kβ (setting [1]) is 1 to 10 µM.
On the same count and under the same terms, the same measure for `C[C@H](Nc1nc(O)nc2cccnc12)c1cc2cccc(C(F)(F)F)c2c(=O)n1-c1cccc(F)c1` [III-47]: above 10 µM.
Still for that read-out and setting: the same measure for `C[C@H](Nc1nc(O)nc2[nH]cnc12)c1cc2cccc(C(F)(F)F)c2c(=O)n1-c1cccc(F)c1` [III-48]: above 10 µM; for `C[C@H](Nc1nccc2nccn12)c1cc2cccc(Cl)c2c(=O)n1-c1ccccc1` [IV-4]: above 10 µM.
Take `C[C@H](Nc1ncnc2cnccc12)c1cc2cccc(Cl)c2c(=O)n1-c1ccccc1` [IV-5]: the IC50 at PI3Kβ (setting [1]) was above 10 µM.
On the same count and under the same terms, the same measure for `C[C@H](Nc1ccn2nccc2n1)c1cc2cccc(Cl)c2c(=O)n1-c1ccccc1` [IV-6]: above 10 µM; for `C[C@H](NCc1cccnc1N)c1cc2cccc(Cl)c2c(=O)n1-c1ccccc1` [IV-8]: above 10 µM; for `C[C@H](Nc1ncc(C(F)(F)F)c(N)n1)c1cc2cccc(Cl)c2c(CCN2CCOCC2)n1` [IV-10]: above 10 µM.
For the compound `C[C@H](Nc1cc(Cl)ncc1C(N)=O)c1cc2cccc(Cl)c2c(=O)n1-c1ccccc1` [IV-21], on PI3Kβ (setting [1]), the IC50 is above 10 µM.
Still for that read-out and setting: the same measure for `C[C@H](Nc1cc(Cl)ncc1C#N)c1cc2cccc(Cl)c2c(=O)n1-c1ccccc1` [IV-23]: above 10 µM.
Consider `C[C@H](Nc1cc(N)ncc1C(N)=O)c1cc2cccc(Cl)c2c(=O)n1-c1ccccc1` [IV-24], for which, on PI3Kβ ('Less than 100 nM'), the IC50 is below 0.1 µM.
Turning to `CCOC(=O)c1cnc(N[C@@H](C)c2cc3cccc(-c4ccnc(OC)c4)c3c(=O)n2-c2ccccc2)nc1N` [IV-25], the half-inhibitory concentration (IC50) on PI3Kβ (setting [1]) was above 10 µM.
Take `C[C@@H](c1cc2cccc(Cl)c2c(=O)n1-c1ccccc1)n1c(=O)[nH]c2cnc(N)nc21` [IV-26]: on PI3Kβ (setting [1]), the IC50 is above 10 µM.
Same read-out and setting: the same measure for `C[C@H](Nc1nc(Cl)ns1)c1cc2cccc(Cl)c2c(=O)n1-c1ccccc1` [IV-27]: above 10 µM.
